Data taken from US7985759B2, “Dipeptidyl peptidase IV inhibitors and processes for their preparation and pharmaceutical compositions containing them” (Matrix Laboratories Ltd., priority 2006, dated 2011).

Molecular target: T1, Human recombinant DPP-IV (Homo sapiens, UniProt P27487)
T1 construct: host or cells: Sf9 insect cells
Test: Assay of Dipeptidyl Peptidase IV activity (hydrolysis of Ala-Pro-AFC, fluorometric)
Format: biochemical
Conditions: human recombinant DPP-IV (expressed in insect Sf9 cells), 20 μM Ala-Pro-AFC, 15 min preincubation, 30 min at 37° C., pH 8.0
Description: Assay of Dipeptidyl Peptidase IV Activity
The inhibition of proteolytic activity of DPP-IV was assayed by following the hydrolysis of Ala-Pro-7-amino-4-trifluoromethylcoumarin (Ala-Pro-AFC) and fluorometric quantitation of the liberated AFC. Human recombinant DPP-IV (expressed in insect Sf9 cells) was used for the assay. Test compounds were dissolved in dimethyl sulfoxide (DMSO). Generally, the enzyme (about 20 ng/ml in 100 mM Tris-HCl buffer, pH 8.0) was preincubated in the absence (1% DMSO) and presence of various concentrations of the test compounds for 15 min at 37° C. The reaction was initiated by the addition of 20 μM Ala-Pro-AFC and further incubated for 30 min at 37° C. The AFC liberated was measured in a spectrofluorometer with excitation and emission wavelengths set at 400 nm and 510 nm, respectively. Results are expressed as percent inhibition of enzyme activity. A reference standard (a known inhibitor of DPP-IV) was always included in the assay.

T1 sequence (P27487 whole entry): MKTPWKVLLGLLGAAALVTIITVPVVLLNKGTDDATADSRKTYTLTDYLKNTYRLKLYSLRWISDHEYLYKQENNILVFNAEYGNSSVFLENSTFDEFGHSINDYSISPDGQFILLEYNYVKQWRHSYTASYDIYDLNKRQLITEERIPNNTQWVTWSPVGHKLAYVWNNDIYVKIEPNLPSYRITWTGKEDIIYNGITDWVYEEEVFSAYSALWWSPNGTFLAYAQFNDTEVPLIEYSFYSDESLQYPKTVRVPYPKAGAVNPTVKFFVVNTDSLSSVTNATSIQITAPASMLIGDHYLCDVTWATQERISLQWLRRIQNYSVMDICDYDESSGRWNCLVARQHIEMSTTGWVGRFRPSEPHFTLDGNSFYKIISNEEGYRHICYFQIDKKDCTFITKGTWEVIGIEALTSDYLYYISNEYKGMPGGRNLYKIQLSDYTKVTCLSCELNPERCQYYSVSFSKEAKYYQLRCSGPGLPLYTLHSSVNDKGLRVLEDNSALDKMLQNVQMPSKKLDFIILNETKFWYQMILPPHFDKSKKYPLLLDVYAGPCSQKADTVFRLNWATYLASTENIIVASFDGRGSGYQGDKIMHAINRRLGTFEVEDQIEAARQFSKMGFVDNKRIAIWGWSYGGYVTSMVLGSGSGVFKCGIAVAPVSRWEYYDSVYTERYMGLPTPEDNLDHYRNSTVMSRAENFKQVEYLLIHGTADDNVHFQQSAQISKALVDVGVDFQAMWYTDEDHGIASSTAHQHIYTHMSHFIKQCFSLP

| Structure (SMILES) | IC50 |
| --- | --- |
| N#C[C@@H]1C[C@H](F)CN1C(=O)CNC12CC3CC1CC(c1ccc(N4CCCC4=O)cc1)(C3)C2 (stereo partly drawn) [Example 16, (2S,4S)-4-fluoro-1-{N-[2-[4-(2-oxopyrrolidin-1-1)phenyl]hexahydro-2,5-methanopentalen-3a(1H)-yl]glycyl}pyrrolidine-2-carbonitrile] | 0.95 nM |
| N#C[C@@H]1C[C@@H](F)CN1C(=O)CNC12CC3CC1CC(Cn1cncn1)(C3)C2 (stereo partly drawn) [Example 3, (2S,4R)-4-fluoro-1-{N-[2-(1H-1,2,4-triazol-1-ylmethyl)hexahydro-2,5-methanopentalen-3a(1H)-yl]glycyl}pyrrolidine-2-carbonitrile] | > 300 nM |
| N#C[C@@H]1CSCN1C(=O)CNC12CC3CC1CC(c1ccc(N4CCCS4(=O)=O)cc1)(C3)C2 (stereo partly drawn) [Example 14, (4R)-3-{N-[2-[4-(1,1-dioxidoisothiazolidin-2-yl)phenyl]hexahydro-2,5-methanopentalen-3a(1H)-yl]glycyl}-1,3-thiazolidine-4-carbonitrile] | 6.4 nM |
| N#C[C@@H]1CCCN1C(=O)CNC12CC3CC1CC(CN1CCCS1(=O)=O)(C3)C2 (stereo partly drawn) [Example 8, (2S)-1-{N-[2-[(1,1-dioxidoisothiazolidin-2-yl)methyl]hexahydro-2,5-methanopentalen-3a(1H)-yl]glycyl}pyrrolidine-2-carbonitrile] | 22 nM |
| N#C[C@@H]1CCCN1C(=O)CNC12CC3CC1CC(Cn1cnnn1)(C3)C2 (stereo partly drawn) [Example 5, (2S)-1-{N-[2-(1H-tetrazol-1-ylmethyl)hexahydro-2,5-methanopentalen-3a(1H)-yl]glycyl}pyrrolidine-2-carbonitrile] | 11 nM |
| N#C[C@@H]1CCCN1C(=O)CNC12CC3CC1CC(c1ccc(N)cc1)(C3)C2 (stereo partly drawn) [Example 30, (2S)-1-{N-[2-(4-aminophenyl)hexahydro-2,5-methanopentalen-3a(1H)-yl]glycyl}pyrrolidine-2-carbonitrile] | ~32.4 nM |
| N#C[C@@H]1CCCN1C(=O)CNC12CC3CC1CC(c1ccc(N4CCCC4=O)cc1)(C3)C2 (stereo partly drawn) [Example 15, (2S)-1-{N-[2-[4-(2-oxopyrrolidin-1-yl)phenyl]hexahydro-2,5-methanopentalen-3a(1H)-yl]glycyl}pyrrolidine-2-carbonitrile] | 4 nM |
| N#C[C@@H]1CSCN1C(=O)CNC12CC3CC1CC(Cn1cncn1)(C3)C2 (stereo partly drawn) [Example 4, (4R)-3-{N-[2-(1H-1,2,4-triazol-1-ylmethyl)hexahydro-2,5-methanopentalen-3a(1H)-yl]glycyl}-1,3-thiazolidine-4-carbonitrile] | 7 nM |
| N#C[C@@H]1CCCN1C(=O)CNC12CC3CC1CC(CN1C(=O)CSC1=O)(C3)C2 (stereo partly drawn) [Example 9, (2S)-1-{N-[2-[(2,4-dioxo-1,3-thiazolidin-3-yl)methyl]hexahydro-2,5-methanopentalen-3a(1H)-yl]glycyl}pyrrolidine-2-carbonitrile] | 31.2 nM |
| N#C[C@@H]1CSCN1C(=O)CNC12CC3CC1CC(c1ccc(N4CCCC4=O)cc1)(C3)C2 (stereo partly drawn) [Example 17, (4R)-3-{N-[2-[4-(2-oxopyrrolidin-1-yl)phenyl]hexahydro-2,5-methanopentalen-3a(1H)-yl]glycyl}-1,3-thiazolidine-4-carbonitrile] | 8.7 nM |
| N#C[C@@H]1C[C@H](F)CN1C(=O)CNC12CC3CC1CC(c1ccc(N4CCCS4(=O)=O)cc1)(C3)C2 (stereo partly drawn) [Example 12, (2S,4S)-1-{N-[2-[4-(1,1-dioxidoisothiazolidin-2-yl)phenyl]hexahydro-2,5-methanopentalen-3a(1H)-yl]glycyl}-4-fluoropyrrolidine-2-carbonitrile] | 5 nM |
| CN1CCN(CC23CC4CC(C2)C(NCC(=O)N2CCC[C@H]2C#N)(C4)C3)CC1 (stereo partly drawn) [Example 6, (2S)-1-{N-[2-[(4-methylpiperazin-1-yl)methyl]hexahydro-2,5-methanopentalen-3a (1H)-yl]glycyl}pyrrolidine-2-carbonitrile] | 100 nM |
| N#C[C@@H]1CCCN1C(=O)CNC12CC3CC1CC(c1ccc(N4CCNC4=O)cc1)(C3)C2 (stereo partly drawn) [Example 19, (2S)-1-{N-[2-[4-(2-oxoimidazolidin-1-yl)phenyl]hexahydro-2,5-methanopentalen-3a(1H)-yl]glycyl}pyrrolidine-2-carbonitrile] | 15.4 nM |
| N#C[C@@H]1CCCN1C(=O)CNC12CC3CC1CC(c1ccc(-n4cccc4)cc1)(C3)C2 (stereo partly drawn) [Example 18, (2S)-1-{N-[2-[4-(1H-pyrrol-1-yl)phenyl]hexahydro-2,5-methanopentalen-3a (1H)-yl]glycyl}pyrrolidine-2-carbonitrile] | ~30 nM |
| N#C[C@@H]1C[C@H](F)CN1C(=O)CNC12CC3CC1CC(Cn1cncn1)(C3)C2 (stereo partly drawn) [Example 2, (2S,4S)-4-fluoro-1-{N-[2-(1H-1,2,4-triazol-1-ylmethyl)hexahydro-2,5-methanopentalen-3a(1H)-yl]glycyl}pyrrolidine-2-carbonitrile] | 2.8 nM |
| N#C[C@@H]1CCCN1C(=O)CNC12CC3CC1CC(c1ccc(N4CCCS4(=O)=O)cc1)(C3)C2 (stereo partly drawn) [Example 11, (2S)-1-{N-[2-[4-(1,1-dioxidoisothiazolidin-2-yl)phenyl]hexahydro-2,5-methanopentalen-3a(1H)-yl]glycyl}pyrrolidine-2-carbonitrile] | 20 nM |
| CN1CCN(c2ccc(C34CC5CC(C3)C(NCC(=O)N3CCC[C@H]3C#N)(C5)C4)cc2)C1=O (stereo partly shown) [Example 32] | 53.6 nM |
| N#C[C@@H]1CCCN1C(=O)CNC12CC3CC1CC(CN1CCSCC1)(C3)C2 (stereo partly drawn) [Example 7, (2S)-1-{N-[2-(thiomorpholin-4-ylmethyl)hexahydro-2,5-methanopentalen-3a(1H)-yl]glycyl}pyrrolidine-2-carbonitrile] | 30 nM |
| N#C[C@@H]1CCCN1C(=O)CNC12CC3CC1CC(c1ccc([N+](=O)[O-])cc1)(C3)C2 (stereo partly drawn) [Example 29, (2S)-1-{N-[2-(4-nitrophenyl)hexahydro-2,5-methanopentalen-3a(1H)-yl]glycyl}pyrrolidine-2-carbonitrile] | ~30 nM |
| N#C[C@@H]1CCCN1C(=O)CNC12CC3CC1CC(CN1C(=O)c4ccccc4C1=O)(C3)C2 (stereo partly drawn) [Example 10, (2S)-1-{N-[2-[(1,3-dioxo-1,3-dihydro-2H-isoindol-2-yl)methyl]hexahydro-2,5-methanopentalen-3a(1H)-yl]glycyl}pyrrolidine-2-carbonitrile] | ~30 nM |

Further lines, results first:

| IC50 | Structure (SMILES) |
| --- | --- |
| 64.5 nM | N#C[C@@H]1CCCN1C(=O)CNC12CC3CC1CC(O)(C3)C2 (stereo partly drawn) [Example 21, (2S)-1-{[(1-hydroxytricyclo[3.3.1.0^3,7]non-3-yl)amino]acetyl}pyrrolidine-2-carbonitrile] |
| 8.1 nM | N#C[C@@H]1CCCN1C(=O)CNC12CC3CC1CC(Cn1cncn1)(C3)C2 (stereo partly drawn) [Example 1, (2S)-1-[1H-1,2,4-triazol-1-ylmethyl(tricyclo[3.3.1.0^3,7]non-3-ylamino)acetyl]pyrrolidine-2-carbonitrile] |
| 11.9 nM | CCOC12CC3CC(C1)C(NCC(=O)N1CCC[C@H]1C#N)(C3)C2 (stereo partly drawn) [Example 23, (2S)-1-{[(1-ethoxytricyclo[3.3.1.0^3,7]non-3-yl)amino]acetyl}pyrrolidine-2-carbonitrile] |
| 30 nM | N#C[C@@H]1CCCN1C(=O)CNC12CC3CC(CC1C3)C2 [Example 20, (2S)-1-[(tricyclo[3.3.1.0^3,7]non-3-ylamino)acetyl]pyrrolidine-2-carbonitrile] |
| 21.8 nM | N#C[C@@H]1CCCN1C(=O)CNC12CC3CC1CC(N1CCCC1=O)(C3)C2 (stereo partly drawn) [Example 26, (2S)-1-{N-[2-(2-oxopyrrolidin-1-yl)hexahydro-2,5-methanopentalen-3a(1H)-yl]glycyl}pyrrolidine-2-carbonitrile] |
| 100 nM | N#C[C@@H]1CCCN1C(=O)CNC12CC3CC1CC(N)(C3)C2 (stereo partly drawn) [Example 24, (2S)-1-{[(1-aminotricyclo[3.3.1.0^3,7]non-3-yl)amino]acetyl}pyrrolidine-2-carbonitrile] |
| 30 nM | COC12CC3CC(C1)C(NCC(=O)N1CCC[C@H]1C#N)(C3)C2 (stereo partly drawn) [Example 22, (2S)-1-{[(1-methoxytricyclo[3.3.1.0^3,7]non-3-yl)amino]acetyl}pyrrolidine-2-carbonitrile] |
| 30 nM | N#C[C@@H]1CCCN1C(=O)CNC12CC3CC1CC(N1CCCS1(=O)=O)(C3)C2 (stereo partly drawn) [Example 27, (2S)-1-{N-[2-(1,1-dioxidoisothiazolidin-2-yl)hexahydro-2,5-methanopentalen-3a(1H)-yl]glycyl}pyrrolidine-2-carbonitrile] |
| 100 nM | N#C[C@@H]1CCCN1C(=O)CNC12CC3CC1CC(F)(C3)C2 (stereo partly drawn) [Example 25, (2S)-1-[N-(2-fluorohexahydro-2,5-methanopentalen-3a(1H)-yl)glycyl]pyrrolidine-2-carbonitrile] |
| 21 nM | N#C[C@@H]1CCCN1C(=O)CNC12CC3CC1CC(Cc1ncon1)(C3)C2 (stereo partly shown) [Example 31] |
| 30 nM | N#C[C@@H]1CCCN1C(=O)CNC12CC3CC1CC(c1ccccc1)(C3)C2 (stereo partly drawn) [Example 28, (2S)-1-[N-(2-phenylhexahydro-2,5-methanopentalen-3a(1H)-yl)glycyl]pyrrolidine-2-carbonitrile] |
